From patent US20260193180A1, “AUTOPHAGY INDUCING COMPOUNDS AND USES THEREOF” (SAMSARA THERAPEUTICS INC., priority 2022, published 2026)
Counter-ions that a name gives are not always drawn.

Tested on: Human osteosarcoma U2OS cells
Assay: Acidic vesicle formation (lysosome/autolysosome staining, LysoView 633 / LysoTracker Deep Red), stimulation of autophagy
Format: cell-based
Settings: 24 hours; for activation at 10 µM: read-out: increase in acidic vesicle formation over the DMSO-treated control; for activation at 0.8 µM: read-out: Activity (percentage increase in acidic vesicle formation over the DMSO-treated control)
Description: Lysosomes play a fundamental role in the autophagic pathway by fusing with autophagosomes and creating ‘autolysosomes’ in order to digest their contents. Stimulation of lysosome and autolysosome formation by a compound is indicative of a stimulation of autophagy. The ability of compounds to stimulate lysosome and autolysosome formation, and thus autophagy, in live cells was assessed via fluorescent microscopy using various fluorescent stains for labelling and tracking acidic organelles (including lysosomes and autolysosomes) such as: LysoView™ 650 (70059 and 70059-T, Biotium), LysoView™633 (70058 and 70058-T, Biotium) and LysoTracker™ Deep Red (L12492, ThermoFisher Scientific). The cellular phenotype was quantitatively assessed for the induction of acidic vesicle formation and compared to a non-treated control, thus providing a measure of the ability of the compound under investigation to stimulate autophagy.
Representative procedure using LysoView™633 dye or LysoTracker™ Deep Red dye: Human osteosarcoma U2OS cells (40,000 cells/well) were seeded in a 24 well glass bottom plate (Sensoplate, Greiner Bio-One) and were incubated overnight in a humidified atmosphere at 37° C. and 5% CO2. Cells were grown in DMEM (Gibco) supplemented with 10% Fetal Bovine Serum (FBS) and 100 units/ml penicillin and 100 μg/ml streptomycin (Invitrogen). After the attachment period, cells were treated with different compounds of interest (at various concentrations in DMSO) or DMSO (non-treated control) in cell culture medium and were incubated for 24 hours. Compound-containing medium was removed and cells were incubated with pre-warmed cell culture medium containing 1× LysoView™ 633 (70058 and 70058-T, Biotium) or 50 nM LysoTracker™ Deep Red (L12492, ThermoFisher Scientific) for 45 minutes at 37° C. Finally, cell nuclei were stained for 10 minutes using Hoechst 33342 (1 μg/mL) and then the medium was replaced with fresh medium. The 24 well plate was then fitted into a heated stage on the microscope and cells maintained at 37° C. Images were captured using appropriate filter set for Cy5 and DAPI detection with the EVOS M7000 Microscope (ThermoFisher Scientific). The cellular phenotype was visually assessed for the induction of acidic vesicle formation relative to the non-treated control; multiple images were acquired and analysed using ImageJ or Cell Profiler.

| Structure (SMILES) | activation at 10 µM | activation at 0.8 µM |
| --- | --- | --- |
| CCOc1ccc(Cl)cc1CCN1CCO[C@@H](CN)C1 [Compound 63, (S)-(4-(5-chloro-2-ethoxyphenethyl)morpholin-2-yl)methanamine hydrochloride] | ≥ 25% |  |
| CCOc1ccc(Cl)cc1CN1CCC[C@@H]1CN [Compound 14, (R)-(1-(5-chloro-2-ethoxybenzyl)pyrrolidin-2-yl)methanamine hydrochloride] | ≥ 25% |  |
| CC(C)COc1ccc(Cl)cc1CN1CC[C@@H](CN)C1 [Compound 52, (S)-(1-(5-chloro-2-isobutoxybenzyl)pyrrolidin-3-yl)methanamine hydrochloride] | ≥ 25% | 10 to 30% |
| CCOc1ccc(C(F)(F)F)cc1CCN1CC[C@@H](CN)C1 [Compound 42, (S)-(1-(2-ethoxy-5-(trifluoromethyl)phenethyl)pyrrolidin-3-yl)methanamine hydrochloride] | ≥ 25% | 50 to 100% |
| NC[C@@H]1CCN(Cc2cc(Cl)ccc2OCC2CC2)C1 [Compound 4, (S)-(1-(5-chloro-2-(cyclopropylmethoxy)benzyl)pyrrolidin-3-yl)methanamine hydrochloride] | ≥ 25% | 30 to 50% |
| CCOc1ccc(OC(F)(F)F)cc1CN1CCN[C@@H](C)C1 [Compound 38, (S)-1-(2-ethoxy-5-(trifluoromethoxy)benzyl)-3-methylpiperazine hydrochloride] | ≥ 25% | 10 to 30% |
| C[C@H]1CN(Cc2cc(Cl)ccc2OCC2CC2)CCN1 [Compound 46, (S)-1-(5-chloro-2-(cyclopropylmethoxy)benzyl)-3-methylpiperazine hydrochloride] | ≥ 25% | 10 to 30% |
| CCOc1ccc(C#N)cc1CCN1CCC[C@@H](CN)C1 [Compound 64, (S)-3-(2-(3-(aminomethyl)piperidin-1-yl)ethyl)-4-ethoxybenzonitrile hydrochloride] | ≥ 25% |  |
| CCOc1ccc(Cl)cc1CCN1CCC[C@@H](CN)C1 [Compound 45, (S)-(1-(5-chloro-2-ethoxyphenethyl)piperidin-3-yl)methanamine hydrochloride] | ≥ 25% | 50 to 100% |
| CCOc1cc(C#N)c(Cl)cc1CN1CC[C@H](CN)C1 [Compound 60, (R)-4-((3-(aminomethyl)pyrrolidin-1-yl)methyl)-2-chloro-5-ethoxybenzonitrile hydrochloride] | ≥ 25% |  |
| CCOc1ccc(C(F)(F)F)cc1CN1CCN[C@@H](C)C1 [Compound 1, (S)-1-(2-ethoxy-5-(trifluoromethyl)benzyl)-3-methylpiperazine hydrochloride] | ≥ 25% |  |
| CCOc1ccc(Cl)cc1CN1CCC[C@@H](N)C1 [Compound 15, (R)-1-(5-chloro-2-ethoxybenzyl)piperidin-3-amine hydrochloride] | ≥ 25% | 10 to 30% |
| CCOc1ccc(Cl)cc1CCN1CCC[C@H](N)C1 [Compound 19, (S)-1-(5-chloro-2-ethoxyphenethyl)piperidin-3-amine hydrochloride] | ≥ 25% |  |
| CCOc1ccc(Cl)cc1CN1CCC[C@H](N)C1 [Compound 16, (S)-1-(5-chloro-2-ethoxybenzyl)piperidin-3-amine hydrochloride] | ≥ 25% |  |
| CCOc1ccc(Cl)cc1CN1CCOC(CN)C1 (stereo not drawn) [Compound 41, (4-(5-chloro-2-ethoxybenzyl)morpholin-2-yl)methanamine hydrochloride] | ≥ 25% | 10 to 30% |
| CCOc1ccc(C(F)(F)F)cc1CN1CCN[C@H](C)C1 [Compound 36, (R)-1-(2-ethoxy-5-(trifluoromethyl)benzyl)-3-methylpiperazine hydrochloride] | ≥ 25% | 10 to 30% |
| CCOc1ccc(Cl)cc1CN1CCC[C@@H](CN)C1 [Compound 7, (S)-(1-(5-chloro-2-ethoxybenzyl)piperidin-3-yl)methanamine hydrochloride] | ≥ 25% | 30 to 50% |
| CCOc1ccc(CN2CCC(CN)C2)cc1Cl (stereo not drawn) [Compound 39, (1-(3-chloro-4-ethoxybenzyl)pyrrolidin-3-yl)methanamine hydrochloride] | ≥ 25% | 30 to 50% |
| CCCOc1ccc(Cl)cc1CCN1CCC[C@@H](CN)C1 [Compound 43, (S)-(1-(5-chloro-2-propoxyphenethyl)piperidin-3-yl)methanamine hydrochloride] | ≥ 25% | 50 to 100% |
| CCOc1ccc(Cl)cc1CN1CC[C@@H](CNC)C1 [Compound 51, (S)-1-(1-(5-chloro-2-ethoxybenzyl)pyrrolidin-3-yl)-N-methylmethanamine] | ≥ 25% |  |
| NC[C@@H]1CCN(Cc2cc(Cl)c(Cl)cc2OCC2CC2)C1 [Compound 6, (S)-(1-(4,5-dichloro-2-(cyclopropylmethoxy)benzyl)pyrrolidin-3-yl)methanamine hydrochloride] | ≥ 25% | 50 to 100% |
| NC[C@@H]1CCN(Cc2cc(Cl)cc3c2OCO3)C1 [Compound 55, (S)-(1-((6-chlorobenzo[d][1,3]dioxol-4-yl)methyl)pyrrolidin-3-yl)methanamine hydrochloride] | ≥ 25% | > 100% |
| NC[C@@H]1CCN(CCc2ccc(OCC3CC3)c(Cl)c2)C1 [Compound 20, (S)-(1-(3-chloro-4-(cyclopropylmethoxy)phenethyl)pyrrolidin-3-yl)methanamine hydrochloride] | ≥ 25% |  |
| CCOc1ccc(CN2CC[C@@H](CN)C2)c(F)c1Cl [Compound 57, (S)-(1-(3-chloro-4-ethoxy-2-fluorobenzyl)pyrrolidin-3-yl)methanamine hydrochloride] | ≥ 25% |  |
| CCOc1ccc(Cl)cc1CN1CCC[C@H]1CN [Compound 13, (S)-(1-(5-chloro-2-ethoxybenzyl)pyrrolidin-2-yl)methanamine hydrochloride] | ≥ 25% |  |
